PubChem BioAssay (NCI)
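96-well plates; 48 h exposure; 5 concentrations. Endpoints by linear interpolation between flanking doses. Not reached: highest tested concentration assigned. Here, GI50 denotes the concentration required for 50% inhibition of growth. The concentration for full growth arrest is given as TGI.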

What was measured:
Assay in all cases: NCI-60 cell line screen, 48 h
COLO 205 colon = test system: COLO 205 colon
OVCAR-3 ovarian = test system: OVCAR-3 ovarian
SR leukemia = test system: SR leukemia
SK-MEL-2 melanoma = test system: SK-MEL-2 melanoma
CAKI-1 renal = test system: CAKI-1 renal
NCI-H226 lung = test system: NCI-H226 lung
K-562 leukemia = test system: K-562 leukemia
MDA-MB-435 = test system: MDA-MB-435
SK-OV-3 ovarian = test system: SK-OV-3 ovarian
SNB-75 CNS = test system: SNB-75 CNS
HS 578T breast = test system: HS 578T breast
MOLT-4 leukemia = test system: MOLT-4 leukemia
A498 renal = test system: A498 renal
SNB-19 CNS = test system: SNB-19 CNS
HCC-2998 colon = test system: HCC-2998 colon
IGROV1 ovarian = test system: IGROV1 ovarian
NCI-H460 lung = test system: NCI-H460 lung
PC-3 prostate = test system: PC-3 prostate
CCRF-CEM leukemia = test system: CCRF-CEM leukemia
U251 CNS = test system: U251 CNS
UACC-62 melanoma = test system: UACC-62 melanoma
HCT-15 colon = test system: HCT-15 colon
RPMI-8226 leukemia = test system: RPMI-8226 leukemia
LOX IMVI melanoma = test system: LOX IMVI melanoma
MDA-MB-231 breast = test system: MDA-MB-231 breast
ACHN renal = test system: ACHN renal
HOP-62 NSCLC = test system: HOP-62 NSCLC
BT-549 breast = test system: BT-549 breast
MCF7 breast = test system: MCF7 breast
OVCAR-8 ovarian = test system: OVCAR-8 ovarian
786-0 renal = test system: 786-0 renal
A549 NSCLC = test system: A549 NSCLC
UACC-257 melanoma = test system: UACC-257 melanoma
DU-145 prostate = test system: DU-145 prostate
NCI-H522 lung = test system: NCI-H522 lung
SW-620 colon = test system: SW-620 colon
SF-295 CNS = test system: SF-295 CNS
TK-10 renal = test system: TK-10 renal
SF-268 CNS = test system: SF-268 CNS
NCI-H23 lung = test system: NCI-H23 lung
M14 melanoma = test system: M14 melanoma
OVCAR-4 ovarian = test system: OVCAR-4 ovarian
NCI/ADR-RES ovarian = test system: NCI/ADR-RES ovarian
UO-31 renal = test system: UO-31 renal
HT29 colon = test system: HT29 colon
SN12C renal = test system: SN12C renal
HL-60(TB) leukemia = test system: HL-60(TB) leukemia
RXF 393 renal = test system: RXF 393 renal
HCT-116 colon = test system: HCT-116 colon
EKVX NSCLC = test system: EKVX NSCLC
SK-MEL-5 melanoma = test system: SK-MEL-5 melanoma
KM12 colon = test system: KM12 colon
SF-539 CNS = test system: SF-539 CNS
T-47D breast = test system: T-47D breast
SK-MEL-28 melanoma = test system: SK-MEL-28 melanoma
MALME-3M melanoma = test system: MALME-3M melanoma
OVCAR-5 ovarian = test system: OVCAR-5 ovarian

## O=c1cc(-c2ccccc2)oc2c(O)c(O)ccc12
COLO 205 colon
  GI50: 18.3 µM
  TGI: 53.9 µM
OVCAR-3 ovarian
  GI50: 2.19 µM
  TGI: 6.18 µM
SR leukemia
  GI50: 3.35 µM
  TGI: > 100 µM
SK-MEL-2 melanoma
  GI50: 44.9 µM
  TGI: > 100 µM
CAKI-1 renal
  GI50: 7.18 µM
  TGI: 61.2 µM
NCI-H226 lung
  GI50: 21 µM
  TGI: > 100 µM
K-562 leukemia
  GI50: 6.08 µM
  TGI: > 100 µM
MDA-MB-435
  GI50: 13 µM
  TGI: > 100 µM
SK-OV-3 ovarian
  GI50: 23.8 µM
  TGI: > 100 µM
SNB-75 CNS
  GI50: 28.7 µM
  TGI: > 100 µM
HS 578T breast
  GI50: 37.2 µM
  TGI: > 100 µM
MOLT-4 leukemia
  GI50: 5.09 µM
  TGI: > 100 µM
A498 renal
  GI50: 21.5 µM
  TGI: > 100 µM
SNB-19 CNS
  GI50: 16.8 µM
  TGI: > 100 µM
HCC-2998 colon
  GI50: 23.8 µM
  TGI: > 100 µM
IGROV1 ovarian
  GI50: 6.99 µM
  TGI: 47.1 µM
NCI-H460 lung
  GI50: 4.44 µM
  TGI: > 100 µM
PC-3 prostate
  GI50: 7.74 µM
  TGI: > 100 µM
CCRF-CEM leukemia
  GI50: 3.45 µM
  TGI: > 100 µM
U251 CNS
  GI50: 7.72 µM
  TGI: > 100 µM
UACC-62 melanoma
  GI50: 13.8 µM
  TGI: 66.4 µM
HCT-15 colon
  GI50: 5.45 µM
  TGI: > 100 µM
RPMI-8226 leukemia
  GI50: 4.03 µM
  TGI: 50.9 µM
LOX IMVI melanoma
  GI50: 9.58 µM
  TGI: > 100 µM
MDA-MB-231 breast
  GI50: 23.2 µM
  TGI: > 100 µM
ACHN renal
  GI50: 5.69 µM
  TGI: > 100 µM
HOP-62 NSCLC
  GI50: 7.08 µM
  TGI: > 100 µM
BT-549 breast
  GI50: 8.36 µM
  TGI: 42.3 µM
MCF7 breast
  GI50: 20 µM
  TGI: > 100 µM
OVCAR-8 ovarian
  GI50: 5.65 µM
  TGI: > 100 µM
786-0 renal
  GI50: 5.99 µM
  TGI: 75.1 µM
A549 NSCLC
  GI50: 7.22 µM
  TGI: 91.5 µM
UACC-257 melanoma
  GI50: 18.6 µM
  TGI: 88.5 µM
DU-145 prostate
  GI50: 8.66 µM
  TGI: > 100 µM
NCI-H522 lung
  GI50: 8.27 µM
  TGI: > 100 µM
SW-620 colon
  GI50: 6.66 µM
  TGI: > 100 µM
SF-295 CNS
  GI50: 7.8 µM
  TGI: > 100 µM
TK-10 renal
  GI50: 7.5 µM
  TGI: 71.1 µM
SF-268 CNS
  GI50: 6.4 µM
  TGI: > 100 µM
NCI-H23 lung
  GI50: 6.27 µM
  TGI: > 100 µM
M14 melanoma
  GI50: 9.55 µM
  TGI: 41.4 µM
OVCAR-4 ovarian
  GI50: 3.73 µM
  TGI: > 100 µM
NCI/ADR-RES ovarian
  GI50: 4.04 µM
  TGI: 67.5 µM
UO-31 renal
  GI50: 3.02 µM
  TGI: 29 µM
HT29 colon
  GI50: 35.4 µM
  TGI: > 100 µM
SN12C renal
  GI50: 12.2 µM
  TGI: > 100 µM
HL-60(TB) leukemia
  GI50: 11.1 µM
  TGI: 55.3 µM
RXF 393 renal
  GI50: 9.95 µM
  TGI: 52.7 µM
HCT-116 colon
  GI50: 4.01 µM
  TGI: > 100 µM
EKVX NSCLC
  GI50: 18.4 µM
  TGI: > 100 µM
SK-MEL-5 melanoma
  GI50: 12.5 µM
  TGI: 45.2 µM
KM12 colon
  GI50: 10.3 µM
  TGI: > 100 µM
SF-539 CNS
  GI50: 14.6 µM
  TGI: > 100 µM
T-47D breast
  GI50: 16.9 µM
  TGI: > 100 µM
SK-MEL-28 melanoma
  GI50: 11.4 µM
  TGI: > 100 µM
MALME-3M melanoma
  GI50: 17.4 µM
  TGI: 60.2 µM
OVCAR-5 ovarian
  GI50: 22 µM
  TGI: > 100 µM
